Among the data in ChEMBL document CHEMBL1140693, “4,5-diarylisoxazole Hsp90 chaperone inhibitors: potential therapeutic agents for the treatment of cancer” (J Med Chem, 2008) are GI50 and IC50 values, retold here.

The subject of one experiment is HCT-116. Kind of experiment: cells. Particulars: Homo sapiens, HCT-116, 24 h.
The target in another experiment is Heat shock protein HSP90 (Homo sapiens, UniProt P07900+P08238).

Molecules are shown by their SMILES. pIC50: −log10 of the molar value. Some results are limits rather than exact numbers.

Description for HCT-116: Growth inhibition of human HCT116 cells after 24 hrs by SRB assay
Description for Heat shock protein HSP90: Displacement of fluorescent labelled VER-00051001 from human Hsp90-beta by FP assay

As for `Oc1cc(O)c(-c2n[nH]cc2N2CCN(Cc3ccccc3)CC2)cc1Cl`, in the experiment on HCT-116, the GI50 worked out at 6.5 µM. Besides, the pIC50 at Heat shock protein HSP90 is 6.22.
In turn, `CCNC(=O)c1noc(-c2cc(C(C)C)c(O)cc2O)c1-c1ccc(CN(CC)CC)cc1` registered a GI50 in the experiment on HCT-116 of 0.006 µM. At Heat shock protein HSP90, the IC50 was determined as 0.006 µM.
Turning to `CCNC(=O)c1[nH]nc(-c2cc(Cl)c(O)cc2O)c1-c1ccc(CN(CC)CC)cc1`, in the experiment on HCT-116, it took 0.315 µM to inhibit growth by half (GI50). Also, the IC50 against Heat shock protein HSP90 was found to be 0.146 µM.
In the experiment on HCT-116, `CCNC(=O)c1[nH]nc(-c2cc(Cl)c(O)cc2O)c1-c1ccc(CNC(=O)C2CCCN(C)C2)cc1` (stereo not given) showed a GI50 of 3.47 µM. The IC50 against Heat shock protein HSP90 came to 0.115 µM.
In the same order, the values of `CCNC(=O)c1[nH]nc(-c2cc(Cl)c(O)cc2O)c1-c1ccc(CN2CCOCC2)cc1` are 0.29 µM and 0.037 µM.
In the experiment with HCT-116, `CCNC(=O)c1[nH]nc(-c2cc(Cl)c(O)cc2O)c1-c1cccc(CN2CCOCC2)c1` registered a GI50 of 2.69 µM. The same compound displayed an IC50 on Heat shock protein HSP90 of 0.222 µM.
`CCNC(=O)c1[nH]nc(-c2cc(Cl)c(O)cc2O)c1-c1cccc(CNCCN2CCCCC2)c1`: in the experiment on HCT-116, the GI50 was found to be 25.1 µM. On Heat shock protein HSP90, this compound registered a half-inhibitory concentration (IC50) of 1 µM.
In the same order, the values of `CCNC(=O)c1[nH]nc(-c2cc(Cl)c(O)cc2O)c1-c1cccc(CNCCN2CCOCC2)c1` are 12.5 µM and 0.431 µM.
In the same order, the values of `CCNC(=O)c1[nH]nc(-c2cc(Cl)c(O)cc2O)c1-c1cccc(CN2CCC(CO)CC2)c1` are over 80 µM and 2.63 µM.
In turn, `CCNC(=O)c1[nH]nc(-c2cc(Cl)c(O)cc2O)c1-c1cccc(CN2CCN(C(C)=O)CC2)c1` returned a GI50 with HCT-116 of 32.7 µM. The compound further registered an IC50 against Heat shock protein HSP90 of 1.29 µM.
In the same order, the values of `CCNC(=O)c1noc(-c2cc(C(C)(C)C)c(O)cc2O)c1-c1ccc(CN2CCCCC2)cc1` are 0.065 µM and 0.011 µM.
In the same order, the values of `CC(=O)c1ccc(CNC(=O)c2c[nH]nc2-c2cc(Cl)c(O)cc2O)cc1` are 11.6 µM and 0.258 µM.
In the same order, the values of `CCNC(=O)c1noc(-c2cc(-c3ccc(F)cc3)c(O)cc2O)c1-c1ccc(CN2CCCCC2)cc1` are 0.035 µM and 0.036 µM.
As to `CCNC(=O)c1noc(-c2cc(Cl)c(O)cc2O)c1-c1ccc(CN2CCOCC2)cc1`, it took 0.083 µM to inhibit growth with HCT-116 by half (GI50).
As to `CCNC(=O)c1[nH]nc(-c2cc(Cl)c(O)cc2O)c1-c1ccc(CN2CCS(=O)(=O)CC2)cc1`, in the experiment on HCT-116, the GI50 worked out at 0.826 µM. This compound also came in with an IC50 against Heat shock protein HSP90 of 0.027 µM.
Turning to `CCNC(=O)c1[nH]nc(-c2cc(Cl)c(O)cc2O)c1-c1ccc(CN(CCO)CCO)cc1`, in the experiment on HCT-116, the GI50 came out at 7.8 µM. On Heat shock protein HSP90, this compound displayed an IC50 of 0.142 µM.
In the experiment on HCT-116, `CCc1cc(-c2[nH]nc(C)c2-c2ccc3c(c2)OCCO3)c(O)cc1O` gave a GI50 of 5.8 µM.
For the compound `CCNC(=O)c1[nH]nc(-c2cc(Cl)c(O)cc2O)c1-c1cccc(CNCCOC)c1`, halving of growth in the experiment with HCT-116 (GI50) required 12.9 µM. The compound also gave an IC50 against Heat shock protein HSP90 of 0.728 µM.
Take `CCNC(=O)c1[nH]nc(-c2cc(Cl)c(O)cc2O)c1-c1cccc(CN2CCC[C@H]2CO)c1`: the GI50 with HCT-116 was 11.4 µM. This compound also came in with an IC50 at Heat shock protein HSP90 of 1.66 µM.
In turn, `CCNC(=O)c1[nH]nc(-c2cc(Cl)c(O)cc2O)c1-c1ccc(CNCCS(C)(=O)=O)cc1` came in with a GI50 in the experiment with HCT-116 of 2.16 µM. The compound further displayed an IC50 on Heat shock protein HSP90 of 0.035 µM.
In turn, `CCNC(=O)c1[nH]nc(-c2cc(Cl)c(O)cc2O)c1-c1ccc(CNC(=O)C[C@@H]2CCCN2)cc1` had a GI50 in the experiment with HCT-116 of 0.275 µM. At Heat shock protein HSP90, this compound registered an IC50 of 0.057 µM.
In turn, `CCNC(=O)c1[nH]nc(-c2cc(Cl)c(O)cc2O)c1-c1cccc(CNCc2ccccc2C(F)(F)F)c1` registered a GI50 in the experiment with HCT-116 of 3.11 µM. Further, the IC50 at Heat shock protein HSP90 stood at 0.231 µM.
`CCNC(=O)c1[nH]nc(-c2cc(Cl)c(O)cc2O)c1-c1cccc(CN(C)CCO)c1`: the GI50 in the experiment with HCT-116 amounted to 9.24 µM. On Heat shock protein HSP90, the IC50 worked out at 0.914 µM.
In the case of `C=CCNC1=C2C[C@@H](C)C[C@H](OC)[C@H](O)[C@@H](C)/C=C(\C)[C@H](OC(N)=O)[C@@H](OC)/C=C\C=C(/C)C(=O)NC(=CC1=O)C2=O` [TANESPIMYCIN], the GI50 in the experiment with HCT-116 came out at 0.16 µM.

In general, GI50 refers to the concentration giving 50% growth inhibition. A high value points to less potent growth inhibition. A word on the pIC50: it is the IC50 on a negative log10 scale, so that one unit is a factor of ten. Broadly, the IC50 is the concentration at which inhibition is half-maximal. The low end stands for inhibition by little substance, the high end for a need for much substance.
